Read-outs that look alike come from different tables or passages of the source.
Assays:
recombinant human IDO = recombinant human IDO (Homo sapiens, UniProt P14902); assay: IDO inhibition kinetics (N-formylkynurenine formation, absorbance at 321 nm); type: biochemical; details: for manner of IDO inhibition: assay repeated using differing concentrations
Procedure: The following reaction (Sono, M., Cady, S. G. Biochemistry 28, 5392-5399 (1989)) was used to measure the kinetics of inhibition of IDO using compounds of this invention as well as other compounds for comparison, as listed in Table 4.
A solution of 0.1M potassium phosphate buffer (pH 6.5; optimal at 37° C.), 25 μM methylene blue, 200 μg/ml of catalase, 10 mM ascorbic acid, 50 nM of recombinant human IDO and 100 μM L-Tryptophan was prepared. The rate of product formation (Δε321=3.75 mM^−1 cm^−1 for N-formylkynurenine) was determined from the slope of the initial linear absorbance increase at 321 nm as a function of time.

purified, human IDO = purified, human IDO (Homo sapiens, UniProt P14902); assay: In vitro IDO activity assay (kynurenine adduct detected at 480 nm) used for bioassay guided fractionation; type: biochemical; details: extracts and compounds identified by bioassay guided fractionation
Procedure: Various in vitro assays (see for example Takikawa, et al. J. Biol. Chem. 263, 2041-2048 (1988)) may be used to screen (e.g. high-throughput screening) or test reaction products or extracts obtained natural sources for IDO inhibition activity or to determine the kinetics of IDO inhibition. For example, IDO activity may be assayed by means of a reaction mixture (100 microlitre total volume) containing potassium phosphate buffer (50 mM, pH 6.5), ascorbic acid (20 mM), catalase (200 microgram/mL), methylene blue ([…]), L-tryptophan ([…]), and purified, human IDO. The reaction shown below may be allowed to proceed for 40 min (37° C.) and stopped by the addition of 20 microlitre of 30% (w/v) trichloroacetic acid. The N-formyl kynurenine formed from tryptophan in the reaction mixture during this time is then converted to kynurenine by incubating the reaction mixture at 65° C. for 15 minutes. After cooling the reaction mixture to room temperature, an equal volume of 2% (w/v) p-dimethylamino benzaldehyde in acetic acid may be added to convert the kynurenine present in the reaction mixture to a yellow adduct that can be detected at 480 nm. A standard curve for this latter reaction may be constructed with the use of standard solutions prepared from authentic L-kynurenine. Protein concentration may be determined by the Coomassie blue dye-binding method of Bradford with bovine serum albumin as a standard. (Takikawa et al, J. Biol. Chem. 263, 2041-2048).
Crude extracts from the marine hydroid Garveia annula collected in British Columbia and the sponge Xestospongia sp. collected in Papua New Guinea show activity in the aforementioned assay. […] Annulins A and B, garveatins A and C, and 2-hydroxygarvin A have been previously reported (Fahy et al J. Org. Chem., (1985), 50, 1149-50; J. Org. Chem., (1986), 51, 57-61; J. Org. Chem., (1986), 51, 5145-48; Can. J. Chem., (1987), 65, 376-83), but were not known to be IDO inhibitors. Annulin C, Garvalone C and garveatins E and F are novel. […] Xestoquinone, adociaquinone A, and adociaquinone B had been previously isolated from sponge extracts and their structures have been reported in the literature (Schmitz and Bloor J. Org. Chem. (1988), 53, 3922-3925), but were not known as IDO inhibitors.

IDO = IDO (Oryctolagus cuniculus, UniProt G1SJI2); details: tryptophan (substrate) analogues; Sono and Cady 1989, Cady and Sono 1991; cited from earlier work
[1] = 50 nM recombinant human IDO, 100 μM L-Tryptophan, pH 6.5, read-out: Ki

Sequence of recombinant human IDO (P14902 whole entry): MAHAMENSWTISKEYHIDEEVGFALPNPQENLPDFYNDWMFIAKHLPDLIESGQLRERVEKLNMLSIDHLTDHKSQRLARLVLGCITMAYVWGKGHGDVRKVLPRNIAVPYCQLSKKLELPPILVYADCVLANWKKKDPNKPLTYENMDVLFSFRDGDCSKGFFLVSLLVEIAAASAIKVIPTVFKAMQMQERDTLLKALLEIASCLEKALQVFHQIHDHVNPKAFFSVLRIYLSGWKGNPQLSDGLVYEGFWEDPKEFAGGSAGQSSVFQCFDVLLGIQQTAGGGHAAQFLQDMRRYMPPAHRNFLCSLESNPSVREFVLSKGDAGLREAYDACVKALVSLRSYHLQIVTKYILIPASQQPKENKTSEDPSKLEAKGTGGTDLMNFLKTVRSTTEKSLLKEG
Sequence of purified, human IDO (P14902 whole entry): as above
Sequence of IDO (G1SJI2 1-402): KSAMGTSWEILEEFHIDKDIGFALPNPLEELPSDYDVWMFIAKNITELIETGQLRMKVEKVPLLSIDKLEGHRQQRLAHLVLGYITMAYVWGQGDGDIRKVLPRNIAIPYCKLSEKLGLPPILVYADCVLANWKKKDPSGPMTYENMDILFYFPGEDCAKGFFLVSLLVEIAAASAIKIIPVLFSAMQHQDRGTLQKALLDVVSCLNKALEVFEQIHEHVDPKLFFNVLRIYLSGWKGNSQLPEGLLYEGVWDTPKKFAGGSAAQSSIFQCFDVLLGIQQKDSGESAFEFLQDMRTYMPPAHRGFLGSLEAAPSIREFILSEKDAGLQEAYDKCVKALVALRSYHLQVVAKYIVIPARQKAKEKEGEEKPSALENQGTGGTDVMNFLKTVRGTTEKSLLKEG

Compound | Ki (recombinant human IDO; [1]) [µM] | IDO inhibition activity (qualitative) (purified, human IDO) | also measured
CCCc1c(C(=O)OC)c(OC)cc2cc3c(c(O)c12)C(=O)C(C)(O)C(=O)C3(C)C (centres unmarked) [2-Hydroxygarvin A] | 2.3 | active IDO inhibitors | –
CC12CCCc3coc(c31)C(=O)c1cc3c(cc12)C(=O)C1=C(NCCS1(=O)=O)C3=O (centres unmarked) [Adociaquinone B] | 0.025 | active IDO inhibitors | –
CCC1=C(C)C(=O)c2cc3c(c(O)c2C1=O)C(=O)C(C)=C(O)C3(C)C [Garveatin E] | 3.1 | active IDO inhibitors | –
CC1=CC(=O)c2ccccc2C1=O [Menadione (Vitamin K3), Menadione, reference compound] | 0.58 | shown to be an IDO inhibitor | manner of IDO inhibition (recombinant human IDO): non-competitive
NC(Cc1coc2ccccc12)C(=O)O (racemic) [beta-(3-benzofuranyl)-DL-alanine] | – | – | manner of IDO inhibition (IDO): competitive inhibitors
CC(=O)CC(c1ccccc1)c1c(O)c2ccccc2oc1=O (centres unmarked) [Warfarin, reference compound] | > 32 | – | –
CCc1c(C)cc2c(c1O)C(=O)C1=C(C2=O)C(C)(C)C(=O)C(C)(C(=O)OC)O1 (centres unmarked) [Annulin B] | 0.123 | active IDO inhibitors | –
CC1Cc2c(c(O)cc3cc4c(c(O)c23)OC(C)(C)C4(C)C)C(=O)O1 (centres unmarked) [Garvin C] | ~2100 | – | –
O=C1C=CC(=O)c2c(O)cccc21 [Juglone, reference compound] | 0.048 | – | –
O=C1C(Cl)=C(Cl)C(=O)c2ccccc21 [Dichlone, reference compound] | – | – | Ki (recombinant human IDO): 0.045 µM
CCc1c(C)cc2c(c1O)C(=O)C1=C(C2=O)C(C)(C)OC1(OC)C(=O)OC (centres unmarked) [Annulin C] | 0.144 | active IDO inhibitors | manner of IDO inhibition (recombinant human IDO): non-competitive
CCc1c(C)cc2c(c1O)C(=O)C1=C(C2=O)C(C)(C)OC1(O)C(=O)OC (centres unmarked) [Annulin A] | 0.694 | active IDO inhibitors | –
Cn1cc(C[C@H](N)C(=O)O)c2ccccc21 [1-methyl-L-tryptophan (1MT), 1-methyl-L-tryptophan] | – | – | manner of IDO inhibition (IDO): competitive inhibitors
O=C1C=Cc2ccccc2C1=O [1,2 naphthoquinone, reference compound] | 3.4 | – | –
CCc1c(C)cc2cc3c(c(O)c2c1O)C(=O)C(C)(O)C(=O)C3(C)C (centres unmarked) [Garveatin F] | 1.42 | active IDO inhibitors | –
Doxorubicin [reference compound] | 46000 | – | –

Now from value to compound, other results behind:

Ki (recombinant human IDO; [1]) [µM] | IDO inhibition activity (qualitative) (purified, human IDO) | Compound | also measured
> 5000 | – | Oc1ccc(O)cc1 [Dihydroquinone, reference compound] | –
0.53 | – | COC1=CC(=O)c2ccccc2C1=O | –
42 | – | O=C1c2ccccc2C(=O)c2c1ccc(O)c2O [Alizarin, reference compound] | –
> 40 | – | CC1=C(C/C=C(\C)CCC[C@H](C)CCC[C@H](C)CCCC(C)C)C(=O)c2ccccc2C1=O [Vitamin K1, reference compound] | –
100 | – | O=C1C=C(O)C(=O)c2ccccc21 | –
0.086 | active IDO inhibitors | CC12CCCc3coc(c31)C(=O)c1cc3c(cc12)C(=O)C1=C(C3=O)S(=O)(=O)CCN1 (centres unmarked) [Adociaquinone A] | –
1.18 | active IDO inhibitors | COc1c(C(C)=O)c(C)cc2cc3c(c(O)c12)C(=O)C(C)(C)C(=O)C3(C)C [Garveatin C] | –
1.25 | – | COC(=O)c1c(C)cc2cc3c(c(O)c2c1OC)C(=O)C(C)(CC(C)=O)C(=O)C3(C)C (centres unmarked) [Garvalone C] | –
1110 | – | O=c1ccc2ccccc2o1 [Coumarin, reference compound] | –
3.2 | active IDO inhibitors | CC(=O)c1c(C)cc2cc3c(c(O)c2c1O)C(=O)C(C)=C(O)C3(C)C [Garveatin A] | –
0.181 | active IDO inhibitors | CC12CCCc3coc(c31)C(=O)c1cc3c(cc12)C(=O)C=CC3=O (centres unmarked) [Xestoquinone] | –
